The record followed here is ChEMBL document CHEMBL1124317, “Rationale for the synthesis and preliminary biological evaluation of highly active new antitumor nitrosoureido sugars” (J Med Chem, 1989).

The subject of assay [1] is Mus musculus. Nature of the assay: The number of L1210 leukemia mice survived after 60 days with compound in aqueous solution injected by a dose of 5 mg/kg intraperitoneally; 6/10. In kind it is functional. The conditions noted are these: route intraperitoneal.
For assay [2], the species on record is Mus musculus. Nature of the assay: Median survival time of the non surviving mice; there are single deaths on day 20, day 21, day 22, and day 25; four deaths occurred. In kind it is functional, organism-based.
Assay [3] is described as follows: Number of mice died/no of mice treated with 5 mg/kg of compound in aqueous solution intraperitoneally with L1210 leukemia; 0/10. Format: functional. The conditions noted are these: route intraperitoneal.
The test system of assay [4] is Mus musculus. Nature of the assay: The number of L1210 leukemia mice survived after 30 days with compound in aqueous solution injected by a dose of 5 mg/kg intraperitoneally; 6/10. In kind it is functional. To be noted: route intraperitoneal.
In assay [5] the test system is Mus musculus. In words: The number of B16 melanocarcinoma mice survived after 60 days with compound in olive oil injected by a dose of 20 mg/kg intraperitoneally; 1/20. Format: functional. The conditions noted are these: route intraperitoneal.
Assay [6] has as its system Mus musculus. In words: Median survival time of the non surviving mice; treated with 5 mg/kg of compound in olive oil to mice with L1210 leukemia and the value is mentioned in braces is range. Format: functional.
Assay [7] deals with Mus musculus. Nature of the assay: Anti tumor activity in olive oil when treated to mice with L1210 leukemia with 5 mg/kg dose of compound intraperitoneally was expressed as percent of treated to control. The conditions noted are these: route intraperitoneal. Format: functional.
Assay [8] deals with Mus musculus. Nature of the assay: Median survival time of the non surviving mice; treated with 5 mg/kg of compound in olive oil to mice with B16 Melanocarcinoma; 13-51. In kind it is functional.
The subject of assay [9] is Mus musculus. In words: The number of Lewis lung mice survived after 30 days with compound in olive oil injected by a dose of 20 mg/kg intraperitoneally; 20/20. In kind it is functional. To be noted: route intraperitoneal.
Assay [10] deals with Mus musculus. Nature of the assay: The number of L1210 Leukemia mice survived after 30 days with compound in olive oil injected by a dose of 20 mg/kg intraperitoneally; 15/15. In kind it is functional. The conditions noted are these: route intraperitoneal.
In assay [11] the test system is Mus musculus. In words: The number of L1210 Leukemia mice survived after 60 days with compound in olive oil injected by a dose of 20 mg/kg intraperitoneally; 15/15. In kind it is functional. The conditions noted are these: route intraperitoneal.
Assay [12] deals with Mus musculus. In words: The number of L1210 leukemia mice survived after 60 days with compound in aqueous solution injected by a dose of 20 mg/kg intraperitoneally; 0/10. To be noted: route intraperitoneal. Format: functional.
A short description of assay [13]: Ratio of mice died to that of mice treated with 20 mg/kg of compound in aqueous solution intraperitoneally with L1210 leukemia; 0/10. Format: functional. The conditions noted are these: route intraperitoneal.
Assay [14] deals with Mus musculus. In words: The number of L1210 leukemia mice survived after 30 days with compound in aqueous solution injected by a dose of 20 mg/kg intraperitoneally; 0/10. In kind it is functional. The conditions noted are these: route intraperitoneal.
Assay [15] can be described thus: Ratio of mice died to that of mice treated with 20 mg/kg of compound in olive oil intraperitoneally with B16 Melanocarcinoma; 0/20. Format: functional. To be noted: route intraperitoneal.
Assay [16] concerns Mus musculus. In words: The number of B16 melanocarcinoma mice survived after 30 days with compound in olive oil injected by a dose of 20 mg/kg intraperitoneally; 14/20. In kind it is functional. To be noted: route intraperitoneal.
Assay [17] relates to Mus musculus. Nature of the assay: The number of Lewis lung mice survived after 60 days with compound in olive oil injected by a dose of 20 mg/kg intraperitoneally; 15/20. Format: functional. To be noted: route intraperitoneal.
Assay [18] in a line: Ratio of mice died to that of mice treated with 20 mg/kg of compound in olive oil intraperitoneally with Lewis lung; 0/20. Format: functional. The conditions noted are these: route intraperitoneal.
Assay [19] in a line: Ratio of mice died to that of mice treated with 20 mg/kg of compound in olive oil intraperitoneally with L1210 leukemia tumor; 0/15. Format: functional. The conditions noted are these: route intraperitoneal.
In assay [20] the test system is Mus musculus. Nature of the assay: Anti tumor activity in olive oil when treated to mice with B16 melanocarcinoma with 5 mg/kg dose of compound intraperitoneally was expressed as percent of treated to control (T/C %). Format: functional. The conditions noted are these: route intraperitoneal.

Consider `CO[C@H]1C[C@@H](NC(=O)N(CCCl)N=O)[C@H](O)[C@@H](CO)O1`, for which the Survivals in the assay on Mus musculus [1] and in the assay on Mus musculus [4] was 6 each time. In the assay listed under Mus musculus [2], this compound had a Number of deaths of 4. The Ratio in [3] was 0.
Take `CO[C@@H]1C[C@@H](NC(=O)N(CCCl)N=O)[C@H](O)[C@@H](C)O1`: the Survivals in the assay with Mus musculus [5] is given as 1; in the assay with Mus musculus [9] it was 20; with Mus musculus [10], 15; in the assay on Mus musculus [11] it was 15; in the assay with Mus musculus [12], 0; with Mus musculus [14] it was 0. Besides, the values for the Survivals in the assay on Mus musculus [16] and in the assay with Mus musculus [17] were 14 and 15, respectively. Further, the Median survival time is on record as 14.2 with Mus musculus [6] and 36.25 with Mus musculus [8]. The T/C is listed as 150% in the assay on Mus musculus [7] and 260% in the assay on Mus musculus [20]. The Ratio in [13], in assay [15], in [18] and in assay [19] was 0 throughout.
